Laboratory results: patent US10508104B2, “6-hydroxy-5-(phenyl/heteroarylsulfonyl)pyrimidin-4(1H)-one as APJ agonists” (Bristol-Myers Squibb Company, priority 2016, dated 2019)
Where two headings read alike, the source gives them in different places.

Molecular target: human APJ receptor (Homo sapiens (Human), UniProt P35414)
Assay: Intracellular cAMP accumulation assay (APJ hcAMP, HTRF)
Assay type: cell-based
Settings: read-out: Human APJ cAMP EC50 Potency range
Summary of the method: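 HEK293 cells stably expressing human APJ, 5,000 per well, incubated 30 min at rt with compound, […] and 2 μM forskolin. cAMP measured by HTRF against a cAMP standard curve as inhibition of forskolin-driven production. EC50 from variable-slope sigmoidal fit.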

[1] = human APJ, intracellular cAMP accumulation

Chain of human APJ receptor (P35414 whole entry): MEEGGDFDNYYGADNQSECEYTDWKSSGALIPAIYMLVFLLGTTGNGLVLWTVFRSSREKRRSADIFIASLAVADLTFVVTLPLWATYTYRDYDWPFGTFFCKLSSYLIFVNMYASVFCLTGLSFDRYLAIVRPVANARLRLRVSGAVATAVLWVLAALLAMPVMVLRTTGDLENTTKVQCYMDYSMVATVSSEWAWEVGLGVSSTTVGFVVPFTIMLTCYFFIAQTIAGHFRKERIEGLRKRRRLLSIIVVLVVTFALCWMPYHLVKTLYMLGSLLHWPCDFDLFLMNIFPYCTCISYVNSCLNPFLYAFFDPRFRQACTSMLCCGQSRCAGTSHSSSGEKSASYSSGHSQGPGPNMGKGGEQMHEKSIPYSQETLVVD

CCCCc1nc(=O)c(S(=O)(=O)c2ccc(Br)cc2)c(O)n1[C@@H](C)c1cccc(C#N)c1 [Example 122, 3-[(1S)-1-[5-(4-bromobenzenesulfonyl)-2-butyl-6-hydroxy-4-oxo-1,4-dihydropyrimidin-1-yl]ethyl]benzonitrile]
EC50 [1]: 10 to 100 nM

COC[C@@H](c1ccccc1)n1c(CC2CC2)nc(=O)c(S(=O)(=O)c2ccc(Br)cc2)c1O [Example 123, 5-(4-bromobenzenesulfonyl)-2-(cyclopropylmethyl)-6-hydroxy-1-[(1R)-2-methoxy-1-phenylethyl]-1,4-dihydropyrimidin-4-one]
EC50 [1]: 100 to 300 nM

CCCCc1nc(=O)c(S(=O)(=O)c2ccc(Br)cc2)c(O)n1[C@@H](CC)c1cccc(OC)c1 [Example 124, 5-(4-bromobenzenesulfonyl)-2-butyl-6-hydroxy-1-[(1S)-1-(3-methoxyphenyl)propyl]-1,4-dihydropyrimidin-4-one]
EC50 [1]: 10 to 100 nM

CCCc1nc(=O)c(S(=O)(=O)c2ccc(Br)cc2)c(O)n1[C@@H](COC)c1ccccc1 [Example 125, 5-(4-bromobenzenesulfonyl)-6-hydroxy-1-[(1R)-2-methoxy-1-phenylethyl]-2-propyl-1,4-dihydropyrimidin-4-one]
EC50 [1]: 100 to 300 nM

CCCCc1nc(=O)c(S(=O)(=O)c2ccc(Br)cc2)c(O)n1[C@H](CC)c1ccccc1 [Example 126, 5-(4-bromobenzenesulfonyl)-2-butyl-6-hydroxy-1-[(1R)-1-phenylpropyl]-1,4-dihydropyrimidin-4-one]
EC50 [1]: 10 to 100 nM

CCCCc1nc(=O)c(S(=O)(=O)c2ccc(Br)cc2)c(O)n1[C@H](C)c1ccccc1 [Example 127, 5-(4-bromobenzenesulfonyl)-2-butyl-6-hydroxy-1-[(1R)-1-phenylethyl]-1,4-dihydropyrimidin-4-one]
EC50 [1]: 10 to 100 nM

CCCCc1nc(=O)c(S(=O)(=O)c2ccc(-c3cncc(F)c3)cc2)c(O)n1[C@@H](C)c1ccccc1 [Example 128, (S)-2-Butyl-5-((4-(5-fluoropyridin-3-yl)phenyl)sulfonyl)-6-hydroxy-1-(1-phenylethyl)pyrimidin-4(1H)-one]
EC50 (HEK293 cells stably expressing human APJ receptor, inhibition of forskolin-mediated cAMP production): 0.01 to 10 nM

CCCCc1nc(=O)c(S(=O)(=O)c2ccc(C)cc2)c(O)n1[C@@H](C)c1ccccc1 [Example 129, 2-butyl-6-hydroxy-5-(4-methylbenzenesulfonyl)-1-[(1S)-1-phenylethyl]-1,4-dihydropyrimidin-4-one]
EC50 [1]: 100 to 300 nM

CCCCc1nc(=O)c(S(=O)(=O)c2ccc(C)cc2)c(O)n1[C@H](C)c1ccccc1 [Example 130, 2-butyl-6-hydroxy-5-(4-methylbenzenesulfonyl)-1-[(1R)-1-phenylethyl]-1,4-dihydropyrimidin-4-one]
EC50 [1]: 10 to 100 nM

CCCCc1nc(=O)c(S(=O)(=O)c2ccc(-c3cncc(F)c3)cc2)c(O)n1[C@H](C)c1ccccc1 [Example 131, 2-butyl-5-[4-(5-fluoropyridin-3-yl)benzenesulfonyl]-6-hydroxy-1-[(1R)-1-phenylethyl]-1,4-dihydropyrimidin-4-one]
EC50 [1]: 10 to 100 nM

CCCCc1nc(=O)c(S(=O)(=O)c2ccc(-c3cncc(F)c3)cc2)c(O)n1[C@@H](COC)c1ccccc1 [Example 132, 2-butyl-5-[4-(5-fluoropyridin-3-yl)benzenesulfonyl]-6-hydroxy-1-[(1R)-2-methoxy-1-phenylethyl]-1,4-dihydropyrimidin-4-one]
EC50 [1]: 0.01 to 10 nM

CCCCc1nc(=O)c(S(=O)(=O)c2ccc(-c3ccc(F)nc3)cc2)c(O)n1[C@@H](COC)c1ccccc1 [Example 133, 2-butyl-5-[4-(6-fluoropyridin-3-yl)benzenesulfonyl]-6-hydroxy-1-[(1R)-2-methoxy-1-phenylethyl]-1,4-dihydropyrimidin-4-one]
EC50 [1]: 0.01 to 10 nM

CCCCc1nc(=O)c(S(=O)(=O)c2ccc(-c3ccncc3C)cc2)c(O)n1[C@@H](COC)c1ccccc1 [Example 134, 2-butyl-6-hydroxy-1-[(1R)-2-methoxy-1-phenylethyl]-5-[4-(3-methylpyridin-4-yl)benzenesulfonyl]-1,4-dihydropyrimidin-4-one]
EC50 [1]: 0.01 to 10 nM

CCCCc1nc(=O)c(S(=O)(=O)c2ccc(-c3ccc(F)nc3)cc2)c(O)n1[C@@H](C)c1ccccc1 [Example 135, 2-butyl-5-[4-(6-fluoropyridin-3-yl)benzenesulfonyl]-6-hydroxy-1-[(1S)-1-phenylethyl]-1,4-dihydropyrimidin-4-one]
EC50 [1]: 0.01 to 10 nM

CCCCc1nc(=O)c(S(=O)(=O)c2ccc(-c3ccc(F)nc3)cc2)c(O)n1[C@H](C)c1ccccc1 [Example 136, 2-butyl-5-[4-(6-fluoropyridin-3-yl)benzenesulfonyl]-6-hydroxy-1-[(1R)-1-phenylethyl]-1,4-dihydropyrimidin-4-one]
EC50 [1]: 0.01 to 10 nM

CCCCc1nc(=O)c(S(=O)(=O)c2ccc(C)cc2)c(O)n1[C@@H](COC)c1ccccc1 [Example 137, 2-butyl-6-hydroxy-1-[(1R)-2-methoxy-1-phenylethyl]-5-(4-methylbenzenesulfonyl)-1,4-dihydropyrimidin-4-one]
EC50 [1]: 0.01 to 10 nM

CCCCc1nc(=O)c(S(=O)(=O)c2ccc(-c3ccncc3C)cc2)c(O)n1[C@@H](C)c1ccccc1 [Example 138, 2-butyl-6-hydroxy-5-[4-(3-methylpyridin-4-yl)benzenesulfonyl]-1-[(1S)-1-phenylethyl]-1,4-dihydropyrimidin-4-one]
EC50 [1]: 0.01 to 10 nM

CCCCc1nc(=O)c(S(=O)(=O)c2ccc(-c3ccncc3C)cc2)c(O)n1[C@H](C)c1ccccc1 [Example 139, 2-butyl-6-hydroxy-5-[4-(3-methylpyridin-4-yl)benzenesulfonyl]-1-[(1R)-1-phenylethyl]-1,4-dihydropyrimidin-4-one]
EC50 [1]: 0.01 to 10 nM

CCCCc1nc(=O)c(S(=O)(=O)c2ccc(-c3cncc(F)c3)cc2)c(O)n1[C@@H](C)c1cccc(C#N)c1 [Example 140, 3-[(1S)-1-{2-butyl-5-[4-(5-fluoropyridin-3-yl)benzenesulfonyl]-6-hydroxy-4-oxo-1,4-dihydropyrimidin-1-yl}ethyl]benzonitrile]
EC50 [1]: 0.01 to 10 nM

CCCCc1nc(=O)c(S(=O)(=O)c2ccc(-c3ccc(F)nc3)cc2)c(O)n1[C@@H](C)c1cccc(C#N)c1 [Example 141, 3-[(1S)-1-{2-butyl-5-[4-(6-fluoropyridin-3-yl)benzenesulfonyl]-6-hydroxy-4-oxo-1,4-dihydropyrimidin-1-yl}ethyl]benzonitrile]
EC50 [1]: 0.01 to 10 nM

CCCCc1nc(=O)c(S(=O)(=O)c2ccc(-c3ccncc3C)cc2)c(O)n1[C@@H](C)c1cccc(C#N)c1 [Example 142, 3-[(1S)-1-{2-butyl-6-hydroxy-5-[4-(3-methylpyridin-4-yl)benzenesulfonyl]-4-oxo-1,4-dihydropyrimidin-1-yl}ethyl]benzonitrile]
EC50 [1]: 0.01 to 10 nM

CCCCc1nc(=O)c(S(=O)(=O)c2ccc(-c3ccncc3C)cc2)c(O)n1[C@H](CC)c1ccccc1 [Example 143, 2-butyl-6-hydroxy-5-[4-(3-methylpyridin-4-yl)benzenesulfonyl]-1-[(1R)-1-phenylpropyl]-1,4-dihydropyrimidin-4-one]
EC50 [1]: 0.01 to 10 nM

CCCCc1nc(=O)c(S(=O)(=O)c2ccc(-c3ccncc3C)cc2)c(O)n1[C@@H](CC)c1cccc(OC)c1 [Example 144, 2-butyl-6-hydroxy-1-[(1S)-1-(3-methoxyphenyl)propyl]-5-[4-(3-methylpyridin-4-yl)benzenesulfonyl]-1,4-dihydropyrimidin-4-one]
EC50 [1]: 0.01 to 10 nM

CCCCc1nc(=O)c(S(=O)(=O)c2ccc(-c3cncc(F)c3)cc2)c(O)n1[C@@H](CC)c1cccc(OC)c1 [Example 145, 2-butyl-5-[4-(5-fluoropyridin-3-yl)benzenesulfonyl]-6-hydroxy-1-[(1S)-1-(3-methoxyphenyl)propyl]-1,4-dihydropyrimidin-4-one]
EC50 [1]: 0.01 to 10 nM

CCCCc1nc(=O)c(S(=O)(=O)c2ccc(-c3ccc(F)nc3)cc2)c(O)n1[C@@H](CC)c1cccc(OC)c1 [Example 146, 2-butyl-5-[4-(6-fluoropyridin-3-yl)benzenesulfonyl]-6-hydroxy-1-[(1S)-1-(3-methoxyphenyl)propyl]-1,4-dihydropyrimidin-4-one]
EC50 [1]: 0.01 to 10 nM

CCCCc1nc(=O)c(S(=O)(=O)c2ccc(-c3ccc(OC)nc3C)cc2)c(O)n1[C@@H](COC)c1ccccc1 [Example 147, 2-butyl-6-hydroxy-1-[(1R)-2-methoxy-1-phenylethyl]-5-[4-(6-methoxy-2-methylpyridin-3-yl)benzenesulfonyl]-1,4-dihydropyrimidin-4-one]
EC50 [1]: 0.01 to 10 nM

CCCCc1nc(=O)c(S(=O)(=O)c2ccc(-c3ccnc(F)c3C)cc2)c(O)n1[C@@H](COC)c1ccccc1 [Example 148, 2-butyl-5-[4-(2-fluoro-3-methylpyridin-4-yl)benzenesulfonyl]-6-hydroxy-1-[(1R)-2-methoxy-1-phenylethyl]-1,4-dihydropyrimidin-4-one]
EC50 [1]: 0.01 to 10 nM

CCCCc1nc(=O)c(S(=O)(=O)c2ccc(-c3cccnc3C)cc2)c(O)n1[C@@H](COC)c1ccccc1 [Example 149, 2-butyl-6-hydroxy-1-[(1R)-2-methoxy-1-phenylethyl]-5-[4-(2-methylpyridin-3-yl)benzenesulfonyl]-1,4-dihydropyrimidin-4-one]
EC50 [1]: 0.01 to 10 nM

CCCCc1nc(=O)c(S(=O)(=O)c2ccc(-c3ccc(F)nc3C)cc2)c(O)n1[C@@H](COC)c1ccccc1 [Example 150, 2-butyl-5-[4-(6-fluoro-2-methylpyridin-3-yl)benzenesulfonyl]-6-hydroxy-1-[(1R)-2-methoxy-1-phenylethyl]-1,4-dihydropyrimidin-4-one]
EC50 [1]: 0.01 to 10 nM

CCCCc1nc(=O)c(S(=O)(=O)c2ccc(-c3cncc(C)c3)cc2)c(O)n1[C@@H](COC)c1ccccc1 [Example 151, 2-butyl-6-hydroxy-1-[(1R)-2-methoxy-1-phenylethyl]-5-[4-(5-methylpyridin-3-yl)benzenesulfonyl]-1,4-dihydropyrimidin-4-one]
EC50 [1]: 0.01 to 10 nM
